The target in one data set is T1, BAX R145E (Homo sapiens, UniProt Q07812, R145E).
T1 construct: Human full-length (1-192) wild-type BAX (Q07812); made in house; host or cells: E. coli BL21 (DE3) CodonPlus (DE3)-RIPL
Description: Liposomal release assay, BAX R145E mutant. It counts as biochemical. The note with it: 250 nM BAX, 5 nM tBID. The protocol: (§1) Liposomes were formed by extrusion of the suspension using Avanti Mini-Extruder (cat #610000) with polycarbonate membranes of 0.1 μm pore size (Avanti Polar Lipids). ANTS/DPX encapsulated liposomes were purified from non-encapsulated ANTS/DPX by gel filtration of a 10 mL CL2B-Sepharose (GE Healthcare Life Sciences) gravity flow column. […] Reactions were initiated by the addition of 10 μL of the encapsulated ANTS/DPX liposome stock. ANTS/DPX release was quantified based on the increase in fluorescence intensity that occurs when the ANTS fluorophore is separated from the DPX quencher upon release from the liposomes into solution. Fluorescence (λex=355 nm and λem=520 nm) was measured at 1-minute intervals at room temperature (22-25° C.) indicated using a Tecan Infinite M1000 plate reader. In the case of heat activation, reactions were setup as described in the absence of tBID or BIM, and experiments were recorded at 42° C. The percentage release of ANTS/DPX at any given time point was calculated as percentage release=((F−F0)/(F100−F0))(100), where F0 and F100 are baseline and maximal fluorescence, respectively. Triton X-100 (1%) was used to determine the maximum amount of liposomal release per assay and was set to 100%.

Another data set deals with BAX−/−MEFs. Kind of data set: STS-induced caspase 3/7 assay in BAX-/- MEFs. It counts as cell-based, mouse. To be noted: MEFs expressing only BAK, 3 μM STS, 6 hr. The source says: FIGS. 9a, 9b, 9c, 9d, 9e, and 9f are a set of diagrams showing that eltrombopag inhibits BAX translocation and BAX-mediated apoptosis in cells. […] BAX translocation is based on antibody-based detection of BAX and mitochondrial protein TOMM20. Representative confocal micrographs from three independent biological experiments. Scale bar, […]. […] Data represent ±SEM of three independent biological replicates. Two-sided t test, ****P<0.0001; ***P<0.001; **P<0.01; *P<0.05; ns, P>0.05. […] Actin and VDAC are loading controls for cytosolic and mitochondrial fractions, respectively. FIGS. 9d and 9e show a caspase 3/7 assay of BAK−/− mouse embryonic fibroblasts (MEFs) (FIG. 9d) and BAX−/−MEFs (FIG. 9e) in response to 3 μM STS and the presence or absence of various doses of EO for 6 hr. Data represent mean of n=3±SEM and are representative of three independent experiments. Two-sided t-test, **** P<0.0001; ***P<0.001;**P<0.01; *P<0.05; ns, P>0.05. […] Data represent mean of n=3±SEM.

The target in a further data set is T2, BAX R134E R145E (Homo sapiens, UniProt Q07812, R134E/R145E).
T2 construct: Human full-length (1-192) wild-type BAX (Q07812); made in house; host or cells: E. coli BL21 (DE3) CodonPlus (DE3)-RIPL
T2 sequence (Q07812 whole entry R134E/R145E): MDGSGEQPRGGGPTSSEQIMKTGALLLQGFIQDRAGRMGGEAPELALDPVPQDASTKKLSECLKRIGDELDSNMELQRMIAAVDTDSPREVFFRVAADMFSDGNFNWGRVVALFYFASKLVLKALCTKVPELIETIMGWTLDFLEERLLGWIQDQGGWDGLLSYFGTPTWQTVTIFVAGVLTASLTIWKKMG
Description: Liposomal release assay, BAX R134E R145E mutant. It counts as biochemical. The note with it: 250 nM BAX, 5 nM tBID; read-out: IC50, inhibition of liposomal release. The protocol: as §1

Data set [1] has as its target T3, BAX (Homo sapiens, UniProt Q07812).
T3 construct: Human full-length (1-192) wild-type BAX (Q07812); made in house; host or cells: E. coli BL21 (DE3) CodonPlus (DE3)-RIPL
Kind of data set: Competitive fluorescence polarization binding assay (FITC-BIM-SAHB displacement from BAX). The protocol: Fluorescence polarization assays (FPA) were performed as previously described (Reyna, D. E., et al. Cancer Cell 32 490-505 (2017)). Direct binding isotherms of BIM-SAHB were measured by incubated FITC-BIM-SAHB (25 nM) with serial dilutions of full-length BAX alone or in the presence of 0.5 or 1 μM EO. Competition binding assays were performed by titrating EO into BAX (150 nM) and FITC-BIM-SAHB (25 nM). Measurements were taken at 10-minute intervals over 60 minutes on a TECAN F200 PRO microplate reader. Reported curves represent a 10-minute time point. KD values and IC50 were determined using GraphPad Prism nonlinear fit four-parameter agonist or antagonist versus response with restraints for 100% and 0% bound calculated by the mP of saturated BAX+FITC-BIM-SAHB and FITC-BIM-SAHB alone.
For orientation: In fluorescence polarisation assays a small probe gives low polarisation when free and higher when bound to something large.

The target of data set [2] is T3, BAX. Description: Liposomal permeabilization (release) assay. The format is biochemical. To be noted: compared with EO. The protocol: as §1
For another data set, the target named is T4, 15N-labeled BAX (Homo sapiens, UniProt Q07812).
T4 construct: Human full-length (1-192) wild-type BAX (Q07812); made in house; host or cells: E. coli BL21 (DE3) CodonPlus (DE3)-RIPL
T4 sequence (Q07812 whole entry): as the sequence (Q07812 whole entry R134E/R145E) above, with E134R, E145R counted along it
Description: 1H-15N HSQC NMR chemical shift perturbation. It counts as binding. On the procedure:
The uniformly ^15N-labeled protein samples were prepared by growing the bacteria in the minimal medium, as previously described (Uchime, O., et al. J Biol Chem 291, 89-102, (2016)). Unlabeled and ^15N-labeled protein samples were prepared in 50 mM potassium phosphate, 50 mM NaCl solution at pH 6.0 in 10% D20. All experiments were performed using an independent sample for each experimental measurement as a 400 μL sample in a 5-mm Shigemi; all samples were DMSO matched with 2% d6-DMSO. Correlation ^1H-^15N-HSQC spectra were recorded on ^15N-labeled BAX at 50 μM in the presence and absence of 100 μM of EO. NMR spectra were acquired at 25° C. on a Bruker 600 MHz spectrometer equipped with a cryoprobe, processed using TopSpin and analyzed using NMRView. […] The weighted average chemical shift perturbation (CSP) was calculated as √(L1δ^1H)^2+(L1δ^15N/5)^2)/2 in p.p.m. […] The significance threshold for backbone amide chemical shift changes was calculated based on the average chemical shift across all residues plus 0.5 or 1 s.d. Solvent-accessible surface area was probed by the addition of 10 mM hy-TEMPO (sigma) to 50 μM ^15N-labeled BAX with and without 100 μM EO measured using standard ^1H-^15N-HSQC with an increased recycle delay of 2 sec. PRE was calculated as the ratio of peak intensities of BAX in the presence of hy-TEMPO to BAX without hy-TEMPO (% intensity). […]

The subject of data set [3] is platelets. Description: Navitoclax-induced thrombocytopenia, platelet counts. The note with it: ABT-263 25 mg/kg single dose, oral gavage, within 24 hr. It counts as in vivo, C57BL/6J mice.
For data set [4], the system named is platelets. The note with it: platelets isolated from treated patients; cited from earlier work.

T3 sequence (Q07812 whole entry): as the sequence (Q07812 whole entry R134E/R145E) above, with E134R, E145R counted along it
T1 sequence (Q07812 whole entry R145E): as the sequence (Q07812 whole entry R134E/R145E) above, with E134R counted along it

For the molecule `CC1=NN(c2ccc(C)c(C)c2)C(=O)/C1=N\Nc1cccc(-c2cccc(C(=O)O)c2)c1O` [EO, eltrombopag], at BAX R145E, the “IC50 relative to BAX WT” value is “more than double that of BAX WT”. Further, the “STS-induced apoptosis mediated by caspase 3/7 activity” value in the data set on BAX−/−MEFs is listed as “no effect”. Also, at BAX R134E R145E, the IC50 is over 10 µM.
Take `COc1c(NN=C2C(=O)N(c3cccc([N+](=O)[O-])c3)N=C2C)cccc1-c1cccc(C(=O)O)c1` [EO-2, 2′-methoxy-3′-(2-(3-methyl-1-(3-nitrophenyl)-5-oxo-1,5-dihydro-4H-pyrazol-4-ylidene)hydrazineyl)-[1,1′-biphenyl]-3-carboxylic acid]: the “competitive binding to the BAX trigger site (FP)” value at BAX [1] (FIG. 7a) was “competitive binding”.
Regarding `COC(=O)c1cccc(-c2cccc(NN=C3C(=O)N(c4ccc(C)c(C)c4)N=C3C)c2O)c1` [EO-Methyl Ester, eltrombopag methyl ester], on BAX [2], the “inhibition of BAX in liposomal release assays” value is reported as “significantly diminished inhibition”. For the same molecule, on BAX [1] (BAX 150 nM, FITC-BIM-SAHB 25 nM, read-out: IC50, competition of FITC-BIM-SAHB by FPA), the IC50 is over 5 µM. The “chemical shift perturbations of 15N-labeled BAX” value at 15N-labeled BAX is recorded as “minimal CSPs”.
On to `CC1(C)CCC(c2ccc(Cl)cc2)=C(CN2CCN(c3ccc(C(=O)NS(=O)(=O)c4ccc(N[C@H](CCN5CCOCC5)CSc5ccccc5)c(S(=O)(=O)C(F)(F)F)c4)cc3)CC2)C1` [navitoclax], for which the platelet loss entry with platelets [3] is reported as “significant platelet loss”.
Regarding romiplostim, the “resistance of patient platelets to ABT-263 (Navitoclax) induced cell death” value in the data set on platelets [4] is on record as “not observed”.

What is called IC50 is the concentration needed to halve the response being measured.

The record behind these values is patent publication US20240043389A1, “COMPOUNDS AND METHODS FOR INHIBITION OF BAX-MEDIATED CELL DEATH” (Albert Einstein College of Medicine, priority 2020, published 2024).
